{
  "source": "paper PMC4853780",
  "about": "“HpDTC1, a Stress-Inducible Bifunctional Diterpene Cyclase Involved in Momilactone Biosynthesis, Functions in Chemical Defence in the Moss Hypnum plumaeforme” (Scientific Reports, 2016)",
  "assay_type_in_all_cases": "biochemical",
  "key": {"HpDTC1 [1]": {"target": "T1, HpDTC1 (Calohypnum plumiforme, UniProt A0A173M1U8)", "T1 construct": "His6-tag, pCold I, E. coli M-15", "T1 sequence (A0A173M1U8 entry or part of it)": "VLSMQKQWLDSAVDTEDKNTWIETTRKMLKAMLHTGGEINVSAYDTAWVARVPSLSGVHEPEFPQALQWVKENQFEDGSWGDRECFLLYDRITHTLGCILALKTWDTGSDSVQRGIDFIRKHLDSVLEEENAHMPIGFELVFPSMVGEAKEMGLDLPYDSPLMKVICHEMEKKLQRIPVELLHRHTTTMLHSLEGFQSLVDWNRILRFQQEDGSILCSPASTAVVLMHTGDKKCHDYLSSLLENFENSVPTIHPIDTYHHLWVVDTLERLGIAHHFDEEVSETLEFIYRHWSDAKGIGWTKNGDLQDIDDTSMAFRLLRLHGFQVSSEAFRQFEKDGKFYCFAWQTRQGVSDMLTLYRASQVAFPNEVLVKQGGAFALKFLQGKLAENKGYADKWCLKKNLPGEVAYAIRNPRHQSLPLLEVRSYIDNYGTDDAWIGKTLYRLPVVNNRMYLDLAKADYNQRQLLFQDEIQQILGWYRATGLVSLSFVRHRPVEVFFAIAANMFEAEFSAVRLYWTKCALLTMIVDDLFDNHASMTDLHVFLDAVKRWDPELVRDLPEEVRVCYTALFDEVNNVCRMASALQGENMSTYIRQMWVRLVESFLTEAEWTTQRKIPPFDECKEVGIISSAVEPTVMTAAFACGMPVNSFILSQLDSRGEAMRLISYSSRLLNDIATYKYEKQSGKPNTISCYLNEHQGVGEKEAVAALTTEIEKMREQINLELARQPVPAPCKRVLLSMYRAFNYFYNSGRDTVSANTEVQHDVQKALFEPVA", "test": "GC-MS of reaction product", "details": "product syn-pimara-7,15-diene"}, "OsCPS4": {"target": "T2, OsCPS4 (Oryza sativa, UniProt Q0JF02)", "T2 construct": "gene CPS4; enzyme preparation not described in main text", "T2 sequence (Q0JF02 48-767)": "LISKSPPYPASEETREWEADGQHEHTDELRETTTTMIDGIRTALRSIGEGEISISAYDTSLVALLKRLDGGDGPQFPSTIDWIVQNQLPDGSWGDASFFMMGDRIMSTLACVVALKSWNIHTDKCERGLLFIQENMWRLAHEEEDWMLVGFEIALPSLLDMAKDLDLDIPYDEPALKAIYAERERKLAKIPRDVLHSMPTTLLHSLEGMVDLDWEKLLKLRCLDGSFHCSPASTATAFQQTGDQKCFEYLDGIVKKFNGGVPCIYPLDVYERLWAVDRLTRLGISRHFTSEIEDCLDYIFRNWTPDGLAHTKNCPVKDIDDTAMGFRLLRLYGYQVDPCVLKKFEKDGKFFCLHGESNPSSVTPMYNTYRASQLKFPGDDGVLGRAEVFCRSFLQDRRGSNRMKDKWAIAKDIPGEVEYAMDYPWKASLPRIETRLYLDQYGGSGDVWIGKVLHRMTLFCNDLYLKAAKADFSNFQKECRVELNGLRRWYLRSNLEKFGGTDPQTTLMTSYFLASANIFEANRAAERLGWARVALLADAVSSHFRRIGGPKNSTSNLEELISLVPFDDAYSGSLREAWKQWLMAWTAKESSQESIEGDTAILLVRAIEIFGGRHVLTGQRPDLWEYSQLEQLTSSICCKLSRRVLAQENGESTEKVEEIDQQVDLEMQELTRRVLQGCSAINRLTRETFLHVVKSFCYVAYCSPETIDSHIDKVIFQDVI", "test": "GC-MS of product after dephosphorylation", "details": "product syn-CDP, detected as syn-copalol after calf intestinal alkaline phosphatase"}, "HpDTC1 [2]": {"target": "T3, HpDTC1 (Calohypnum plumiforme, UniProt A0A173M1U8, D394G/D395G)", "T3 construct": "His6-tag, pCold I, E. coli M-15", "T3 sequence (A0A173M1U8 entry or part of it D394G/D395G)": "as the sequence (A0A173M1U8 entry or part of it) above, with D309G, D310G counted along it", "test": "GC-MS of product, co-incubation with OsCPS4", "details": "syn-CDP formed in situ from GGDP by OsCPS4; type A activity; product syn-pimara-7,15-diene"}},
  "data": [
    {"molecule": "CC(C)=CCC/C(C)=C/CC/C(C)=C/CC/C(C)=C/COP(=O)(O)OP(=O)(O)O", "note": "[GGDP]", "values": [
      {"measurement": "GC-MS of reaction product", "setting": "HpDTC1 [1]", "value": "used for the enzyme assay using GGDP as a substrate"},
      {"measurement": "GC-MS of product after dephosphorylation", "setting": "OsCPS4", "value": "syn-copalol derived from syn-CDP, product of OsCPS4"}
    ]},
    {"molecule": "C=C1CC[C@H]2C(C)(C)CCC[C@]2(C)[C@@H]1CC/C(C)=C/COP(=O)(O)OP(=O)(O)O", "note": "[syn-CDP]", "values": [
      {"measurement": "GC-MS of product, co-incubation with OsCPS4", "setting": "HpDTC1 [2]", "value": "Co-incubation with OsCPS4 and the type B mutant of HpDTC1 (DIGG) complemented the impaired"}
    ]}
  ]
}
